In US11857533B2, “Composition for preventing or treating obesity or lipid-related metabolic disorders” (Nexyon Biotech Co., Ltd., priority 2019, dated 2024):

Tests used:
Format in all cases: in vivo, C57BL/6 mice
[1] = tested on: high-fat-diet-induced obesity mouse model; experiment: Weight loss effect in high-fat-diet-induced obesity mouse model; details: irosustat 10 mg/kg orally once a day, 60% high-fat diet
Protocol: (§1) 8-week-old C57BL/6 mice were fed with a 60% high-fat diet, and a vehicle or irosustat (10 mg/kg) prepared in Preparation Example 1 was administered orally to the mice once a day for a total of 10 days.

[2] = tested on: high-fat-diet-induced obesity mouse model; experiment: Fat mass and lean mass by DEXA in high-fat-diet-induced obesity mouse model; details: 10 mg/kg orally once a day for 13 weeks, vs vehicle
Protocol: as §1
An experiment was performed under the same conditions as in Experimental Example 1 above, except that the mice were imaged using DEXA (Dual-energy X-ray absorptiometry) after the vehicle or irosustat was administered orally to the mice for 13 weeks.

[3] = tested on: high-fat-diet-induced obesity mouse model; experiment: Adipocyte size in abdominal fat tissue, high-fat-diet-induced obesity mouse model; details: 10 mg/kg orally once a day for 13 weeks, vs vehicle
Protocol: as §1
An experiment was performed under the same conditions as in Experimental Example 1 above, except that the mice were euthanized after oral administration of irosustat for 13 weeks and abdominal fat tissue was taken and then imaged with a microscope. In addition, the areas of adipocytes in the abdominal fat tissue in the control group and the drug-administered group were measured, and the results are shown in FIG. 5.

[4] = tested on: high-fat-diet-induced obesity mouse model; experiment: Hepatic steatosis amelioration, liver tissue microscopy, high-fat-diet-induced obesity mouse model; details: 10 mg/kg orally once a day for 13 weeks, vs vehicle
Protocol: as §1
An experiment was performed under the same conditions as in Experimental Example 1 above, except that the mice were euthanized after oral administration of irosustat for 13 weeks and hepatic tissue was taken and then imaged with a microscope.

[5] = tested on: high-fat-diet-induced obesity mouse model; experiment: Glucose tolerance test (GTT) in high-fat-diet-induced obesity mouse model; details: 10 mg/kg orally for 11 weeks, 16 h fast, glucose 1 g/kg i.p., 0-120 min, vs vehicle
Protocol: as §1
An experiment was performed under the same conditions as in Experimental Example 1 above, except that the mice were fasted for 16 hours after oral administration of irosustat for 11 weeks, and glucose was injected intraperitoneally into the mice at a dose of 1 g/kg body weight. 0 min, 15 min, 30 min, 60 min, 90 min and 120 min after intraperitoneal injection, blood was collected from the tail of each mice and the glucose level in the blood was measured. However, during the glucose tolerance test, a stable environment was provided to the experimental animals. In addition, AUC (area under the glucose-time curve) was measured using the following Equation 1 and the results are shown in FIG. 8. In Equation 1, C0, C15, C30, C60, C90 and C120 are glucose levels measured at 0 min, 15 min, 30 min, 60 min, 90 min and 120 min, respectively. AUC=0.5×(0.5×C0+C15+C30+C60+C90+0.5×C120) [Equation 1]

[6] = tested on: high-fat-diet-induced obesity mouse model; experiment: Insulin tolerance test (ITT) in high-fat-diet-induced obesity mouse model; details: 10 mg/kg orally for 12 weeks, 2 h fast, insulin 0.8 units/kg i.p., 0-120 min, vs vehicle
Protocol: as §1
An experiment was performed under the same conditions as in Experimental Example 1 above, except that the mice were fasted for 2 hours after oral administration of irosustat for 12 weeks, and then the blood glucose levels of the mice were measured and insulin was injected intraperitoneally into the mice at a dose of 0.8 units/kg body weight. 0 min, 15 min, 30 min, 60 min, 90 min and 120 min after intraperitoneal injection, blood was collected from the tail of each mice and the glucose level in the blood was measured.

[7] = tested on: high-fat-diet-induced obesity mouse model; experiment: Blood cholesterol and triglyceride levels in high-fat-diet-induced obesity mouse model; details: 10 mg/kg orally once a day for 13 weeks, vs vehicle
Protocol: as §1
An experiment was performed under the same conditions as in Experimental Example 1 above, except that the blood cholesterol and triglyceride levels in the control group and the drug-administered group were measured after oral administration of irosustat for 13 weeks. The results of measurement of the cholesterol and triglyceride levels are shown in FIGS. 11 and 12, respectively.

**Q.** For `NS(=O)(=O)Oc1ccc2c3c(c(=O)oc2c1)CCCCC3` [irosustat, (6-oxo-8,9,10,11-tetrahydro-7H-cyclohepta[c]chromen-3-yl) sulfamate], which body weight ([1]; C57BL/6 mice, vehicle control 36.4+/−3.4 g) is on record?
**A.** The body weight was 31.4 ± 5.0 g.

**Q.** What about the “decrease of body weight compared to control group” value ([1]; vs vehicle) of the same compound?
**A.** The value was “about 14%”.

**Q.** And the fat mass [2]?
**A.** Its fat mass is “significantly decreased”.

**Q.** What about the “size of adipocytes in abdominal fat tissue” value [3] of the same compound?
**A.** The value was “significantly decreased”.

**Q.** And the “findings of hepatic steatosis caused by the high-fat diet” value [4]?
**A.** The value was “significantly improved”.

**Q.** And the “blood glucose level in glucose tolerance test (time course and AUC)” value [5]?
**A.** The value was “significantly decreased”.

**Q.** And the “blood glucose level in insulin tolerance test (time course and AUC)” value [6]?
**A.** The value was “significantly decreased”.

**Q.** What about the blood cholesterol level [7] of the same compound?
**A.** The blood cholesterol level was “significantly decreased”.

**Q.** And the blood triglyceride level [7]?
**A.** The blood triglyceride level was “significantly decreased”.
